Measurements: the supplement of paper PMC10307832

Key:
Experiment in all cases: relative viability (nuclei count vs DMSO), 5 days (fraction); higher = more cells survive
Ibrutinib + Crizotinib = compound: C=CC(=O)N1CCC[C@@H](n2nc(-c3ccc(Oc4ccccc4)cc3)c3c(N)ncnc32)C1 [Ibrutinib] + C[C@@H](Oc1cc(-c2cnn(C3CCNCC3)c2)cnc1N)c1c(Cl)ccc(F)c1Cl [Crizotinib] (partner 1 µM)
How it was run: (§1)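 For relative viability, nuclei counts in treated wells were divided by those in vehicle wells. Lung cancer cell lines had been pin-tool dosed in 1536-well plates the day after seeding and cultured for 5 days, then fixed and stained in one step (final 0.05% Triton X-100, 1% formaldehyde, 1 ug/ml Hoechst) and imaged at 4×. Doses were one drug alone or a fixed anchor-drug dose plus five library-drug doses (not always all listed) in √10 steps, and values are duplicate-plate medians.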

Ibrutinib + Phenformin = compound: C=CC(=O)N1CCC[C@@H](n2nc(-c3ccc(Oc4ccccc4)cc3)c3c(N)ncnc32)C1 [Ibrutinib] + N=C(N)NC(=N)NCCc1ccccc1 [Phenformin] (partner 250 µM)
How it was run: as §1

Ibrutinib + Olaparib = compound: C=CC(=O)N1CCC[C@@H](n2nc(-c3ccc(Oc4ccccc4)cc3)c3c(N)ncnc32)C1 [Ibrutinib] + O=C(c1cc(Cc2n[nH]c(=O)c3ccccc23)ccc1F)N1CCN(C(=O)C2CC2)CC1 [Olaparib] (partner 8 µM)
How it was run: as §1

PAC-1 + Bortezomib = compound: C=CCc1cccc(/C=N/NC(=O)CN2CCN(Cc3ccccc3)CC2)c1O [PAC-1] + CC(C)C[C@H](NC(=O)[C@H](Cc1ccccc1)NC(=O)c1cnccn1)B(O)O [Bortezomib] (partner 0.002 µM)
How it was run: as §1

Cell Line | relative viability (Ibrutinib + Crizotinib; first compound 0.005 µM) | relative viability (Ibrutinib + Crizotinib; first compound 0.01581 µM) | relative viability (Ibrutinib + Crizotinib; first compound 0.05 µM) | relative viability (Ibrutinib + Crizotinib; first compound 0.1581 µM) | relative viability (Ibrutinib + Crizotinib; first compound 0.5 µM) | relative viability (Ibrutinib + Phenformin; first compound 0.005 µM) | relative viability (Ibrutinib + Phenformin; first compound 0.01581 µM) | relative viability (Ibrutinib + Phenformin; first compound 0.05 µM) | relative viability (Ibrutinib + Phenformin; first compound 0.1581 µM) | relative viability (Ibrutinib + Phenformin; first compound 0.5 µM) | relative viability (Ibrutinib + Olaparib; first compound 0.005 µM) | relative viability (Ibrutinib + Olaparib; first compound 0.01581 µM) | relative viability (Ibrutinib + Olaparib; first compound 0.05 µM) | relative viability (Ibrutinib + Olaparib; first compound 0.1581 µM) | relative viability (Ibrutinib + Olaparib; first compound 0.5 µM) | relative viability (PAC-1 + Bortezomib; first compound 0.02 µM) | relative viability (PAC-1 + Bortezomib; first compound 0.06325 µM) | relative viability (PAC-1 + Bortezomib; first compound 0.2 µM) | relative viability (PAC-1 + Bortezomib; first compound 2 µM)
HCC-827 | 0.89 | 0.923 | 0.927 | 0.94 | 0.184 | 0.408 | 0.358 | 0.304 | 0.431 | 0.181 | 0.699 | 0.667 | 0.568 | 0.681 | 0.216 | 1.1 | 1.01 | 1.07 | 0.978
EBC-1 | 0.199 | 0.21 | 0.205 | 0.188 | 0.162 |  |  |  |  |  | 0.718 | 0.645 | 0.606 | 0.737 | 0.797 | 0.513 | 0.544 | 0.633 | 0.53
NCI-H647 | 1.03 | 1.07 | 1.13 | 1.06 | 0.993 |  | 0.467 | 0.411 | 0.592 | 0.605 | 0.638 | 0.387 | 0.62 | 0.57 | 0.637 | 0.771 | 0.924 | 0.765 | 0.924
A549 | 0.814 | 0.649 | 0.639 | 0.708 | 0.661 | 0.21 | 0.135 | 0.159 | 0.163 | 0.152 |  | 0.35 | 0.279 | 0.326 | 0.21 |  |  |  | 
NCI-H661 |  |  | 1.09 | 0.904 | 0.873 | 0.26 | 0.281 | 0.252 | 0.287 | 0.271 | 0.716 | 0.706 | 0.719 | 0.773 | 0.579 | 0.782 | 0.816 | 0.782 | 0.91
NCI-H1651 | 0.952 | 0.871 | 0.819 | 0.818 | 0.88 | 0.34 | 0.262 | 0.295 | 0.308 | 0.252 | 0.193 | 0.183 | 0.173 | 0.176 | 0.185 | 0.905 | 0.929 | 0.88 | 0.968
HCC-78 | 0.347 | 0.328 | 0.289 | 0.335 | 0.247 | 0.541 | 0.787 | 0.575 | 0.616 | 0.559 |  | 0.773 | 0.716 | 0.87 | 0.679 | 0.387 | 0.496 | 0.434 | 0.483
NCI-H2085 | 0.92 | 0.852 | 0.772 | 0.918 | 0.706 | 0.584 | 0.691 | 0.616 | 0.589 | 0.495 | 0.764 | 0.735 | 0.736 | 0.749 | 0.748 | 1.09 | 1.1 | 1.14 | 1.12
NCI-H2228 | 0.4 | 0.359 | 0.36 | 0.569 | 0.359 | 0.378 |  | 0.346 | 0.263 | 0.285 | 0.774 | 0.601 | 0.776 | 1.08 | 0.715 | 0.897 | 1.26 | 1.03 | 1.51
